In ChEMBL document CHEMBL3414489, “3,4-Diaza-bicyclo[4.1.0]hept-4-en-2-one phenoxypropylamine analogs of irdabisant (CEP-26401) as potent histamine-3 receptor inverse agonists with robust wake-promoting activity” (Eur J Med Chem, 2015):
Active and inactive are the calls of the source. The rule behind the calls is not given here.

Experiments:
Histamine H3 receptor [1] = biological target: Histamine H3 receptor (Rattus norvegicus, UniProt Q9QYN8); assay: Binding affinity to rat histamine H3 receptor
Histamine H3 receptor [2] = biological target: T1, Histamine H3 receptor (Homo sapiens, UniProt Q9Y5N1); assay: Binding affinity to human histamine H3 receptor
[3] = Half life in monkey liver microsomes; assay type: ADME, Macaca mulatta; details: rhesus monkey
[4] = Half life in human liver microsomes; assay type: ADME
[5] = Clearance in iv dosed rat; assay type: ADME, organism-based; details: in vivo
[6] = Half life in dog liver microsomes; assay type: ADME, Canis lupus familiaris
[7] = Half life in iv dosed rat; assay type: ADME, organism-based; details: in vivo
[8] = Half life in mouse liver microsomes; assay type: ADME
[9] = Oral bioavailability in rat; assay type: ADME, organism-based; details: in vivo
Cytochrome P450 1A2 = biological target: T2, Cytochrome P450 1A2 (Homo sapiens, UniProt P05177); assay: Inhibition of CYP1A2 (unknown origin); assay type: ADME
T2 sequence (P05177 whole entry): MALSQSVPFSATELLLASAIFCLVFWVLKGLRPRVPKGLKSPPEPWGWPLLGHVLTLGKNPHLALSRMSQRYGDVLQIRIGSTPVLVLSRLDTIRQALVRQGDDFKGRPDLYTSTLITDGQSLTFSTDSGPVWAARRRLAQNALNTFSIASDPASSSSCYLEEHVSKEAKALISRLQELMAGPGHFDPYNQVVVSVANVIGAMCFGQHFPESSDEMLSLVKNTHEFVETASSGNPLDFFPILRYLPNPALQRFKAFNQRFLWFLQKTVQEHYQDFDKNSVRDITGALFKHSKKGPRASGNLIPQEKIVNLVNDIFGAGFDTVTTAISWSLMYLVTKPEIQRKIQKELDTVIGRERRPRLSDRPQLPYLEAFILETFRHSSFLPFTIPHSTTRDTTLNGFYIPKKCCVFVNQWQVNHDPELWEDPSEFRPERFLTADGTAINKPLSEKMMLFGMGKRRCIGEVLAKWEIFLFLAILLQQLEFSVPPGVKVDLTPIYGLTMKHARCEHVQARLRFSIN

[10] = Half life in rat liver microsomes; assay type: ADME
Canis familiaris [11] = assay: Oral bioavailability in dog at 3 mg/kg; assay type: ADME, organism-based, Canis lupus familiaris; details: in vivo
[12] = Cmax in rat at 10 mg/kg, po; assay type: ADME, organism-based; design: dose 10 mg/kg, route oral; details: in vivo
[13] = Permeability across human Caco2 cells; assay type: ADME, cell-based; details: Caco-2
[14] = AUC (0 to t) in monkey at 3 mg/kg, po; assay type: ADME, organism-based, Macaca mulatta; design: dose 3 mg/kg, route oral; details: rhesus monkey, plasma
Rattus norvegicus [15] = assay: Wake promoting activity in rat EEG/EMG model assessed as recovery from sleep at 3 to 30 mg/kg, ip after 22 hrs relative to vehicle-treated control; assay type: functional, organism-based
[16] = Half life in dog at 1 mg/kg, iv; assay type: ADME, organism-based, Canis lupus familiaris; design: dose 1 mg/kg, route intravenous; details: in vivo
[17] = Cmax in monkey at 3 mg/kg, po; assay type: ADME, organism-based, Macaca mulatta; design: dose 3 mg/kg, route oral; details: rhesus monkey, in vivo
[18] = Ratio of drug level in brain to plasma in rat at 10 mg/kg, ip after 2 hrs; assay type: ADME, organism-based; design: dose 10 mg/kg, route intraperitoneal; details: read-out: BPR
[19] = Aqueous solubility of the compound at pH 7.4; assay type: physicochemical
[20] = Volume of distribution at steady state in rat at 1 mg/kg, iv; assay type: ADME, organism-based; design: dose 1 mg/kg, route intravenous; details: in vivo, read-out: Vdss
[21] = Half life in rat at 1 mg/kg, iv; assay type: ADME, organism-based; design: dose 1 mg/kg, route intravenous; details: in vivo
[22] = Volume of distribution at steady state in dog at 1 mg/kg, iv; assay type: ADME, organism-based, Canis lupus familiaris; design: dose 1 mg/kg, route intravenous; details: in vivo, read-out: Vdss
[23] = Cmax in dog at 3 mg/kg, po; assay type: ADME, organism-based, Canis lupus familiaris; design: dose 3 mg/kg, route oral; details: in vivo
Rattus norvegicus [24] = assay: Wake promoting activity in rat EEG/EMG model assessed as AUC of cumulative wake at 30 mg/kg, ip up to 5.5 hrs relative to vehicle-treated control; assay type: functional, organism-based; design: dose 30 mg/kg, time < 5.5 hr
Rattus norvegicus [25] = assay: Toxicity in po dosed rat; assay type: organism-based; details: in vivo
[26] = Ratio of drug level in brain to plasma in dog at 10 mg/kg, ip after 2 hrs; assay type: ADME, organism-based, Canis lupus familiaris; design: dose 10 mg/kg, route intraperitoneal; details: read-out: BPR
[27] = AUC (0 to t) in rat at 10 mg/kg, po; assay type: ADME, organism-based; design: dose 10 mg/kg, route oral; details: plasma
[28] = Plasma protein binding in dog; assay type: ADME, cell-free, Canis lupus familiaris; details: read-out: PPB (converted)
Histamine H4 receptor = Histamine H4 receptor (Homo sapiens, UniProt Q9H3N8); assay: Inhibition of human H4R
Rattus norvegicus [29] = assay: Wake promoting activity in ip dosed rat EEG/EMG model; assay type: functional, organism-based
[30] = Aqueous solubility of the compound at pH 2; assay type: physicochemical
Rattus norvegicus [31] = organism: Rattus norvegicus; assay: Inhibition of RAMH-induced dipsogenia in rat; assay type: functional
Histamine H3 receptor [32] = biological target: T1, Histamine H3 receptor; assay: Inverse agonist activity at human H3R expressed in CHO cells assessed as inhibition of RAMH-induced [35S]GTPgammaS binding relative to control; assay type: functional, cell-based
[33] = biological target: Sodium-dependent dopamine transporter (Homo sapiens, UniProt Q01959); assay: Inhibition of DAT (unknown origin)
Canis familiaris [34] = assay: AUC (0 to t) in dog at 3 mg/kg, po; assay type: ADME, organism-based, Canis lupus familiaris, Plasma; design: dose 3 mg/kg, route oral; details: in vivo
[35] = biological target: T3, Alpha-2C adrenergic receptor (Homo sapiens, UniProt P18825); assay: Inhibition of alpha-2C adrenergic receptor (unknown origin)
T3 sequence (P18825 whole entry): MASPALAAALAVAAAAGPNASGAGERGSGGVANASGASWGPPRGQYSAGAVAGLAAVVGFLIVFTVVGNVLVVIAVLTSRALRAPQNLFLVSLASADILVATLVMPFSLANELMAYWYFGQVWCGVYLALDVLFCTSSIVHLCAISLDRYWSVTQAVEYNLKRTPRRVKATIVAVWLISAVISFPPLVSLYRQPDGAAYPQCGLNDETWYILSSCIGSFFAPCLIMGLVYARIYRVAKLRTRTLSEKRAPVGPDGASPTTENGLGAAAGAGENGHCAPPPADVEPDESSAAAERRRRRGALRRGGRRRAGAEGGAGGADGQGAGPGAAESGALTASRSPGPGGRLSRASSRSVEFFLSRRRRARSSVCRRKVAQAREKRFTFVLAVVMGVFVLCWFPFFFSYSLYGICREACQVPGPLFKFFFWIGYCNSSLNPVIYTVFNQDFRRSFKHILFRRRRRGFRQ

[36] = Oral bioavailability in rat at 10 mg/kg; assay type: ADME, organism-based; details: in vivo
[37] = Plasma protein binding in rat; assay type: ADME, cell-free; details: read-out: PPB (converted)
Rattus norvegicus [38] = assay: Toxicity in rat at 3 to 30 mg/kg, ip; assay type: organism-based; design: dose 3-30 mg/kg, route intraperitoneal; details: in vivo
[39] = Clearance in monkey at 1 mg/kg, iv; assay type: ADME, organism-based, Macaca mulatta; design: dose 1 mg/kg, route intravenous; details: rhesus monkey, in vivo
Histamine H1 receptor = Histamine H1 receptor (Homo sapiens, UniProt P35367); assay: Inhibition of human H1R
Rattus norvegicus [40] = assay: Wake promoting activity in rat EEG/EMG model assessed as AUC of cumulative wake at 3 mg/kg, ip up to 4 hrs relative to vehicle-treated control; assay type: functional, organism-based; design: dose 3 mg/kg, time < 4 hr
Histamine H2 receptor = Histamine H2 receptor (Homo sapiens, UniProt P25021); assay: Inhibition of human H2R
[41] = Plasma protein binding in human; assay type: ADME, cell-free; details: read-out: PPB (converted)
[42] = Half life in monkey at 1 mg/kg, iv; assay type: ADME, organism-based, Macaca mulatta; design: dose 1 mg/kg, route intravenous; details: rhesus monkey, in vivo
Rattus norvegicus [43] = organism: Rattus norvegicus; details: 10 mg/kg
Rattus norvegicus [44] = assay: Wake promoting activity in rat EEG/EMG model assessed as total time awake at 30 mg/kg, ip at 6.5 hrs relative to vehicle-treated control; assay type: functional; details: route intraperitoneal
[45] = Clearance in rat at 1 mg/kg, iv; assay type: ADME, organism-based; design: dose 1 mg/kg, route intravenous; details: in vivo
[46] = Volume of distribution at steady state in monkey at 1 mg/kg, iv; assay type: ADME, organism-based, Macaca mulatta; design: dose 1 mg/kg, route intravenous; details: rhesus monkey, in vivo, read-out: Vdss
[47] = Oral bioavailability in monkey at 3 mg/kg; assay type: ADME, organism-based, Macaca mulatta; details: rhesus monkey, in vivo

Chain of Histamine H3 receptor (Rattus norvegicus, UniProt Q9QYN8) (Q9QYN8 whole entry): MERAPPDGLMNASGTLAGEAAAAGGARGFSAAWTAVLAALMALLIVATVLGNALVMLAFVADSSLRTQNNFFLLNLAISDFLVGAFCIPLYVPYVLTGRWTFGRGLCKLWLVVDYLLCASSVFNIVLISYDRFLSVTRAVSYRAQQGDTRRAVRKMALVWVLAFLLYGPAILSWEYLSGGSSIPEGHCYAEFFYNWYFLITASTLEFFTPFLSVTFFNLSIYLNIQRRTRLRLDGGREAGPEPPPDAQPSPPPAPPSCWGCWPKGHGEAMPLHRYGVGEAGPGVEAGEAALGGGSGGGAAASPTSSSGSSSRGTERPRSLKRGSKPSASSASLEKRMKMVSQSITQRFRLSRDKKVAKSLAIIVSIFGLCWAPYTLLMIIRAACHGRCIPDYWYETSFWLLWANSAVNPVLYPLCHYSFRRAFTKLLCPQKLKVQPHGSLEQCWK
T1 sequence (Q9Y5N1 whole entry): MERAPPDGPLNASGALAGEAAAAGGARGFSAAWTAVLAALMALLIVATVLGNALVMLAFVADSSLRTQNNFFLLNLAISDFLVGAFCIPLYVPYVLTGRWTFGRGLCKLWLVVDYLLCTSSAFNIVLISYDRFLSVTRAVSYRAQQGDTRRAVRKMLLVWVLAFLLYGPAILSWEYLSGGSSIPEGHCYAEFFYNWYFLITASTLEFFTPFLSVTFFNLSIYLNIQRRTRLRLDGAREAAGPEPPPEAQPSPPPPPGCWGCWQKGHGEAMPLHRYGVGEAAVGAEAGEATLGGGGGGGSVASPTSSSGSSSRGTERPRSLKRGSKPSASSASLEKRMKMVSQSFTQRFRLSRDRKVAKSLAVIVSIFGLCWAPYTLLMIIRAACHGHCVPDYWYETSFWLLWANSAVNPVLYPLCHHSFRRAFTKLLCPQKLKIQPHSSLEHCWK
Chain of Histamine H2 receptor (P25021 whole entry): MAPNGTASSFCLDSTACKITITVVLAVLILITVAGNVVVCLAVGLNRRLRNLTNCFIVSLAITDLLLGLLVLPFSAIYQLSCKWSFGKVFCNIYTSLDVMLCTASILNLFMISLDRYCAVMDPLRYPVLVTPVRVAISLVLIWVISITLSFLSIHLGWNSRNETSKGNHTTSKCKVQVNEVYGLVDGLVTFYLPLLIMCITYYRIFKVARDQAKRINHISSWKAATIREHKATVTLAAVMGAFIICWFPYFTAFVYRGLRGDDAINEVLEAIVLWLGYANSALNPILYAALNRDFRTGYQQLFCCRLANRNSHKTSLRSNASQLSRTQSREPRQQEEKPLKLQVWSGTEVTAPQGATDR
Chain of Histamine H4 receptor (Q9H3N8 whole entry): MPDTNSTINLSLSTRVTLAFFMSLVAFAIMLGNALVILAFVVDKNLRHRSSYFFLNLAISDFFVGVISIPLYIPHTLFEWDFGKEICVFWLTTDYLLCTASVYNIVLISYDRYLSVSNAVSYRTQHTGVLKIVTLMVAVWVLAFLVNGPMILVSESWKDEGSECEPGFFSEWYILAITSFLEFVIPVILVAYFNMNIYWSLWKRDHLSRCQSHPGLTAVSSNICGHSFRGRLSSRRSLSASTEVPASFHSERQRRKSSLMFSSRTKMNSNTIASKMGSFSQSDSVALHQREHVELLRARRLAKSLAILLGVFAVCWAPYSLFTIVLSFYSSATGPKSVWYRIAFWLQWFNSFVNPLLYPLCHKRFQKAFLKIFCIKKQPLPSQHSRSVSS
Chain of Histamine H1 receptor (P35367 whole entry): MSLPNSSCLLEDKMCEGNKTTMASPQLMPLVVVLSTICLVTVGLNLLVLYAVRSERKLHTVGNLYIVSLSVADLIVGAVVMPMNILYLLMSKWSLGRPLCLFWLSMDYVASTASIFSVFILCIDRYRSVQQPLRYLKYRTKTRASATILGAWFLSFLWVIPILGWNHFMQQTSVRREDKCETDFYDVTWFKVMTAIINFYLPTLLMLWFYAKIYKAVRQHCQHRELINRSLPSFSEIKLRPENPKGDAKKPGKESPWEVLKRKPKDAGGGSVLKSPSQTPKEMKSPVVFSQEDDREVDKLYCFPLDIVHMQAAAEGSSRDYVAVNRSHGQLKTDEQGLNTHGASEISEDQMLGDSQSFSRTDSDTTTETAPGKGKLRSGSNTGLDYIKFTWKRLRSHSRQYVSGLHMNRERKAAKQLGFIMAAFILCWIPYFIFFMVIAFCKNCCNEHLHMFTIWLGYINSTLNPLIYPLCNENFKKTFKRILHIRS
Chain of Sodium-dependent dopamine transporter (Q01959 whole entry): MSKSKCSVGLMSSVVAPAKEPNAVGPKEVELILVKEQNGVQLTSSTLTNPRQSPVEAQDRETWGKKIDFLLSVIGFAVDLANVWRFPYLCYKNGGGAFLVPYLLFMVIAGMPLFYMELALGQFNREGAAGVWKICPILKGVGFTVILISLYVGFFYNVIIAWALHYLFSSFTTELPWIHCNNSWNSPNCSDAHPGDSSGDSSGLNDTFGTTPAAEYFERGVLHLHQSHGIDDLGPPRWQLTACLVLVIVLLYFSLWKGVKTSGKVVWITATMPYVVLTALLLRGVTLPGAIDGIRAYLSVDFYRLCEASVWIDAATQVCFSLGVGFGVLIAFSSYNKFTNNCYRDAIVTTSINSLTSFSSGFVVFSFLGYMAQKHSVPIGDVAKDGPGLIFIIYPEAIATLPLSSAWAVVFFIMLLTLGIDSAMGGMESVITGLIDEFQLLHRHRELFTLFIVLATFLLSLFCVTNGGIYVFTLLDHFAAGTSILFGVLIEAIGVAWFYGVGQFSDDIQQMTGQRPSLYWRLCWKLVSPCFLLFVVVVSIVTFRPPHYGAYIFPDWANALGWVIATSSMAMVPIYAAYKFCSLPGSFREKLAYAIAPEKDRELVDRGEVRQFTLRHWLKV

O=C1NN=C(c2ccc(OCCCN3CCCCC3)cc2)C2CC12 (racemic)
Ki (Histamine H3 receptor [1]): 54 nM | Ki (Histamine H3 receptor [2]): 19 nM

Cc1cc(OCCCN2CCC[C@H]2C)ccc1C1=NNC(=O)C2CC12 (mixture of isomers)
Ki (Histamine H3 receptor [1]): 66 nM | Ki (Histamine H3 receptor [2]): 7 nM

C[C@@H]1CCCN1CCCOc1ccc(C2=NNC(=O)C3CC23)cc1 (stereo partly drawn)
half-life [3]: > 40 min | half-life [4]: > 40 min | Ki (Histamine H3 receptor [1]): 13 nM | clearance [5]: 11 mL/min/kg | half-life [6]: > 40 min | half-life [7]: 84 min | half-life [8]: > 40 min | bioavailability [9]: > 25% | Ki (Histamine H3 receptor [2]): 3.7 nM | IC50 (Cytochrome P450 1A2): > 30000 nM | half-life [10]: > 40 min

C[C@@H]1CCCN1CCCOc1ccc(C2=NNC(=O)[C@@H]3C[C@H]23)cc1
F (Canis familiaris [11]): 115% | half-life [3]: > 40 min | Cmax [12]: 810 ng/mL | Papp [13]: 17.5 ×10⁻⁶ cm/s | half-life [4]: > 40 min | AUC(0-t) [14]: 9570 ng·h/mL | Activity (Rattus norvegicus [15]): inactive | Ki (Histamine H3 receptor [1]): 9.9 nM | half-life [16]: 192 min | Cmax [17]: 764 ng/mL | Kp at 2 h [18]: 2 | solubility [19]: > 4000 µg/mL | Vd [20]: 0.9 L/kg | half-life [21]: 66 min | Vd [22]: 3.7 L/kg | Cmax [23]: 664 ng/mL | AUC (Rattus norvegicus [24]): 233 min | Activity (Rattus norvegicus [25]): Non-toxic | Kp at 2 h [26]: 2.1 | AUC(0-t) [27]: 5760 ng·h/mL | fraction unbound [28]: 0.4 | Ki (Histamine H4 receptor): > 10000 nM | Activity (Rattus norvegicus [29]): Dose-dependent effect | solubility [30]: > 4000 µg/mL | Activity (Rattus norvegicus [31]): Dose-dependent effect | ED50 (Rattus norvegicus [31]): 0.14 mg/kg | EC50 (Histamine H3 receptor [32]): 0.7 nM | Ki [33]: 10200 nM | AUCt (Canis familiaris [34]): 4205 ng·h/mL | Ki [35]: 1500 nM | half-life [8]: > 40 min | bioavailability [36]: 34% | fraction unbound [37]: 0.19 | Activity (Rattus norvegicus [38]): Non-toxic | clearance [39]: 6 mL/min/kg | Ki (Histamine H1 receptor): > 10000 nM | AUC (Rattus norvegicus [40]): 128 min | Ki (Histamine H3 receptor [2]): 3.1 nM | Ki (Histamine H2 receptor): > 10000 nM | fraction unbound [41]: 0.55 | half-life [42]: 462 min | AUC (Rattus norvegicus [43]): 158 min | Time (Rattus norvegicus [44]): 197 min | IC50 (Cytochrome P450 1A2): > 30000 nM | half-life [10]: > 40 min | clearance [45]: 9.6 mL/min/kg | Vd [46]: 4 L/kg | bioavailability [47]: 136%
